Test results reported in patent publication US8481542B2, “Pyridazinyl derivatives as smo inhibitors” (Novartis AG, priority 2008, dated 2013).
Values after ≈ are worked out from the molar mass of the structure shown. Like-named read-outs stand apart in the source and are kept apart here.

Key:
[1] = tested on: Gli-luciferase activity in TMHh12 cells; assay: Reporter gene assay (RGA) in TMHh12 cells, antagonism of Gli-luciferase activity in presence of Smo agonist; assay type: cell-based
Experimental: Activity of the compounds was evaluated using a reporter gene assay (RGA) in TMHh12 cells.

[2] = molecular target: mouse Smoothened receptor (Mus musculus, UniProt P56726); assay: Smo binding assay, displacement of radio-labeled smoothened agonist, filter binding format (mouse); settings: read-out: Mouse Smo bdg., IC50
Source text: (§1) A Smo binding assay was developed using radio-labeled smoothened agonist for compound competition. Table 10 lists the IC50 for displacement of a small molecule agonist of Smoothened determined in a filter binding format for the mouse and human Smoothened receptor.

[3] = molecular target: human Smoothened receptor (Homo sapiens, UniProt Q99835); assay: Smo binding assay, displacement of radio-labeled smoothened agonist, filter binding format (human); settings: read-out: Human Smo bdg., IC50
Source text: as §1

[4] = equilibrium solubility at pH 6.8; assay type: physicochemical; settings: aqueous buffer, thermodynamic from solid, examples of the present invention
[5] = read-out: RGA (1 nM Smo agonist) IC50, 1 nM Smo agonist, Table 10, values as ranges
[6] = read-out: RGA (25 nM Smo agonist) IC50, 25 nM Smo agonist, Table 10, values as ranges
[7] = TMHh12, read-out: RGA (1 nM Smo agonist) IC50, 1 nM Smo agonist, examples of the present invention, exact values
[8] = TMHh12, read-out: RGA (25 nM Smo agonist) IC50, 25 nM Smo agonist, examples of the present invention, exact values
[9] = examples of the present invention, exact values

human Smoothened receptor, sequence (Q99835 28-787): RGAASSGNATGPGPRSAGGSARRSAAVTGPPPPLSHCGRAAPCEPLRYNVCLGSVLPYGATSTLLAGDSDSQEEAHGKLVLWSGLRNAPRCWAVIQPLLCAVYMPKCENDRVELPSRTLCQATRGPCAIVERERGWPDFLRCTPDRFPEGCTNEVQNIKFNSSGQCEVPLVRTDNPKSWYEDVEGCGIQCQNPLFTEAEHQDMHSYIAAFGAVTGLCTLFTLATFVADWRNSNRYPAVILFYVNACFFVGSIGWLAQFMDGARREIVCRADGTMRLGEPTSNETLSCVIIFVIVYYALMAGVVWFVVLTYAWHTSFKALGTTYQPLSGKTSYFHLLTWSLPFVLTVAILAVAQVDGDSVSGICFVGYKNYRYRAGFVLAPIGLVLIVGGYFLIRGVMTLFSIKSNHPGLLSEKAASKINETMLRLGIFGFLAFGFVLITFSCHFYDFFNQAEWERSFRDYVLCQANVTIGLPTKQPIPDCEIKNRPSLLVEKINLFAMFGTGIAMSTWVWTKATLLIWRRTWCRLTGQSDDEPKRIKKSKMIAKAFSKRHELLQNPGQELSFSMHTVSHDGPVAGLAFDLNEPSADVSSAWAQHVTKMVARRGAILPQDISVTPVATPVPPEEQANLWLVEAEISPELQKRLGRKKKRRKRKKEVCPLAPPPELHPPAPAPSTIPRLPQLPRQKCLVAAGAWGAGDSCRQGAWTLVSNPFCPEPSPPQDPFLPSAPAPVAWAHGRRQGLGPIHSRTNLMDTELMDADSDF
mouse Smoothened receptor, sequence (P56726 33-793): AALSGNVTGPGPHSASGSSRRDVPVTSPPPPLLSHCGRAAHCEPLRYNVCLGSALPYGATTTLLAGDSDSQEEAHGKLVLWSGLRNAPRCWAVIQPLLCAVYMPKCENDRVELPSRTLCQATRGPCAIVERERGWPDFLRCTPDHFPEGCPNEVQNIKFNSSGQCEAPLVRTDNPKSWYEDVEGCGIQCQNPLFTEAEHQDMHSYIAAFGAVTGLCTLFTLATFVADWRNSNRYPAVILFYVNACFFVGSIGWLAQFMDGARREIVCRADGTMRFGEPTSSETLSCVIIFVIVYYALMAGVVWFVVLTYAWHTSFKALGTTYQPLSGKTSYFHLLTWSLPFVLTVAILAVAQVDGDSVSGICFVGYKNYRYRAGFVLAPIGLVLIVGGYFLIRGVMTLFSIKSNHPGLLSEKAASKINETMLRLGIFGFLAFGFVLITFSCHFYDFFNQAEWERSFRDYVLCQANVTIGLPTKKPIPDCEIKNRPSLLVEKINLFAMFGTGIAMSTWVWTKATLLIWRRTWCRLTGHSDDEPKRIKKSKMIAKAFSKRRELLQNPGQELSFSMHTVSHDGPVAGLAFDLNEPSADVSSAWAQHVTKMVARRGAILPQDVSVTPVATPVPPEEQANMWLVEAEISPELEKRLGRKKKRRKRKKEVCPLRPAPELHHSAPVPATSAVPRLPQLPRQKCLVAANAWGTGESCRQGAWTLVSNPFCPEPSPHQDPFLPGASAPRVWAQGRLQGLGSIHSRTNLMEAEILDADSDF

| Compound | IC50 [1, 5] | IC50 [1, 6] | IC50 ([2]; Table 10, values as ranges) | IC50 ([3]; Table 10, values as ranges) | IC50 [1, 7] | IC50 [1, 8] | IC50 [2, 9] | IC50 [3, 9] | solubility thermodynamic [4] |
| --- | --- | --- | --- | --- | --- | --- | --- | --- | --- |
| 4,5-Dimethyl-3-(1-methyl-1H-tetrazol-5-ylmethyl)-6-[4-(5-trifluoromethyl-pyridin-2-yl)-piperazin-1-yl]-pyridazine & 4,5-Dimethyl-3-(2H-methyl-2H-tetrazol-5-ylmethyl)-6-[4-(5-trifluoromethyl-pyridin-2-yl)-piperazin-1-yl]-pyridazine [160/161] | 1 to 10 nM | 1 to 25 nM | 1 to 10 nM | 1 to 10 nM | – | – | – | – | – |
| Cc1c(Oc2ccccc2)nnc(N2CCN(c3cnc(C(C)(C)O)cn3)[C@H](C)C2)c1C [Example 2, 2-[(R)-4-(4,5-Dimethyl-6-phenoxy-pyridazin-3-yl)-2-methyl-3,4,5,6-tetra-hydro-2H-[1,2′]bipyrazinyl-5′-yl]-propan-2-ol] | – | – | – | – | 2 nM | 23 nM | 8 nM | 4 nM | – |
| COC(=O)c1cnc(N2CCN(c3nnc(-c4ccc(F)c(Cl)c4)c(C)c3C)CC2)nc1C(F)(F)F [Example 20] | < 0.1 nM | 0.1 to 1 nM | < 0.1 nM | < 0.1 nM | – | – | – | – | – |
| Cc1c(C(O)c2ccccc2)nnc(N2CCN(c3cnc(C(C)(C)O)cn3)[C@H](C)C2)c1C (stereo partly shown) [Example 48] | – | – | – | – | 2 nM | 25 nM | 8 nM | 5 nM | 425 µM (≈ 191 µg/mL) |
| Cc1c(Cc2ccncc2)nnc(N2CCN(c3cnc(C(C)(C)O)cn3)[C@H](C)C2)c1C [Example 50, 2-[(R)-4-(4,5-Dimethyl-6-pyridin-4-ylmethyl-pyridazin-3-yl)-2-methyl-3,4,5,6-tetrahydro-2H-[1,2′]bipyrazinyl-5′-yl]-propan-2-ol] | – | – | – | – | 6 nM | 114 nM | 32 nM | 29 nM | > 1000 µM |
| Cc1c(Cc2ccccn2)nnc(N2CCN(c3cnc(C(C)(C)O)cn3)[C@H](C)C2)c1C [Example 54, 2-[(R)-4-(4,5-Dimethyl-6-pyridin-2-ylmethyl-pyridazin-3-yl)-2-methyl-3,4,5,6-tetrahydro-2H-[1,2′]bipyrazinyl-5′-yl]-propan-2-ol] | – | – | – | – | 7 nM | 83 nM | 30 nM | 22 nM | 619 µM (≈ 268 µg/mL) |
| Cc1c(Cc2ccccc2)nnc(N2CCC(C)(c3nc4cnccc4[nH]3)CC2)c1C [Example 59, 2-[1-(6-Benzyl-4,5-dimethyl-pyridazin-3-yl)-4-methyl-piperidin-4-yl]-1H-imidazo[4,5-c]pyridine] | 1 to 10 nM | 1 to 25 nM | 1 to 25 nM | 1 to 10 nM | – | – | – | – | – |
| Cc1c(Cc2ccccc2)nnc(N2CCN(c3cnc(C(C)(C)O)cn3)[C@H](C)C2)c1C [Example 88, 2-[(R)-4-(6-Benzyl-4,5-dimethyl-pyridazin-3-yl)-2-methyl-3,4,5,6-tetrahydro-2H-[1,2′]bipyrazinyl-5′-yl]-propan-2-ol] | – | – | – | – | 1 nM | 14 nM | 3 nM | 9 nM | 44 µM (≈ 19 µg/mL) |
| Cc1c(Cc2ccccc2)nnc(N2CCN(c3cnc(C(C)(C)O)cn3)CC2)c1C [Example 89] | – | – | – | – | 2 nM | 60 nM | 15 nM | 11 nM | 11 µM (≈ 4.6 µg/mL) |
| Cc1c(Cc2ccccc2)nnc(N2CCN(c3cnc(C(C)(C)O)cn3)[C@@H](C)C2)c1C [Example 90] | – | – | – | – | 1 nM | 34 nM | 7 nM | 6 nM | 18 µM (≈ 7.79 µg/mL) |
| CC[C@@H]1CN(c2nnc(Cc3ccccc3)c(C)c2C)CCN1c1cnc(C(C)(C)O)cn1 [Example 91] | – | – | – | – | 5 nM | 57 nM | 8 nM | 8 nM | – |
| C[C@@H]1CN(c2nnc(Cc3ccccc3)c3c2CCC3)CCN1c1cnc(C(C)(C)O)cn1 [Example 93] | – | – | – | – | 1 nM | 14 nM | 3 nM | 1 nM | 20 µM (≈ 8.89 µg/mL) |
| CC(=O)c1cnc(N2CCN(c3nnc(Cc4ccccc4)c(C)c3C)C[C@H]2C)cn1 [Example 95, 1-[(R)-4-(6-Benzyl-4,5-dimethyl-pyridazin-3-yl)-2-methyl-3,4,5,6-tetrahydro-2H-[1,2]bipyrazinyl-5′-yl]-ethanone] | – | – | – | – | 8 nM | 110 nM | 9 nM | 8 nM | – |
| Cc1c(Cc2ccccc2)nnc(N2CCN(c3ncc(C(C)(C)O)c(C(F)(F)F)n3)[C@H](C)C2)c1C [Example 96] | – | – | – | – | 6 nM | 62 nM | 4 nM | 3 nM | – |
| Cc1c(Cc2ccc(F)cc2)nnc(N2CCN(c3ncc(C(C)(C)O)c(C(F)(F)F)n3)[C@H](C)C2)c1C [Example 97] | – | – | – | – | 3 nM | 35 nM | 2 nM | 2 nM | – |
| C[C@@H]1CN(c2nnc(Cc3ccccc3)c3c2CCC3)CCN1c1ncc(C(C)(C)O)c(C(F)(F)F)n1 [Example 98] | – | – | – | – | 11 nM | 69 nM | 6 nM | 6 nM | – |
| C[C@@H]1CN(c2nnc(Cc3ccc(F)cc3)c3c2CCC3)CCN1c1ncc(C(C)(C)O)c(C(F)(F)F)n1 [Example 99] | – | – | – | – | 5 nM | 72 nM | 3 nM | 2 nM | – |
| CC(C)(O)c1ccc(N2CCN(c3nnc(Cc4ccc(F)cc4)c4c3CCCC4)CC2)nc1 [Example 104] | – | – | – | – | 5 nM | 70 nM | 9 nM | 14 nM | – |
| CC(C)(O)c1ccc(N2CCN(c3nnc(Cc4ccc(F)cc4)c4c3CCC4)CC2)nc1 [Example 105] | – | – | – | – | 3 nM | 35 nM | 6 nM | 7 nM | – |
| Cc1c(Cc2ccc(F)cc2)nnc(N2CCN(c3ccc(C(C)(C)O)cn3)CC2)c1C [Example 106] | – | – | – | – | 5 nM | 76 nM | 5 nM | 7 nM | – |
| C[C@@H]1CN(c2nnc(Cc3ccccc3)c3c2CCC3)CCN1c1cc(C(F)(F)F)c(C(C)(C)O)cn1 [Example 107] | – | – | – | – | 2 nM | 23 nM | 3 nM | 3 nM | – |
| CC(=O)c1cnc(N2CCN(c3nnc(Cc4ccccc4)c4c3CCC4)C[C@H]2C)cc1C(F)(F)F [Example 108] | – | – | – | – | 4 nM | 33 nM | – | – | – |
| C[C@@H]1CN(c2nnc(Cc3ccc(F)cc3)c3c2CCC3)CCN1c1cc(C(F)(F)F)c(C(C)(C)O)cn1 [Example 109] | – | – | – | – | 3 nM | 38 nM | 2 nM | 2 nM | – |
| CCC(O)(CC)c1cnc(N2CCN(c3nnc(Cc4ccccc4)c(C)c3C)C[C@H]2C)cn1 [Example 111] | – | – | – | – | 1 nM | 18 nM | 2 nM | 1 nM | – |
| Cc1c(Cc2ccccc2)nnc(N2CCN(c3cnc(C(C)(O)CO)cn3)[C@H](C)C2)c1C (stereo partly drawn) [Example 144, 2-[(R)-4-(6-Benzyl-4,5-dimethyl-pyridazin-3-yl)-2-methyl-3,4,5,6-tetrahydro-2H-[1,2]bipyrazinyl-5′-yl]-propane-1,2-diol] | – | – | – | – | 5 nM | 83 nM | 19 nM | 24 nM | 270 µM (≈ 121 µg/mL) |
